Counter-ions that a name gives are not always drawn.
Legend:
human H1 receptor = biological target: T1, human H1 receptor (Homo sapiens, UniProt P35367); assay: Histamine H1 receptor binding, competition displacement of [3H]-pyrilamine; conditions: displacement of 1 nM [3H]-pyrilamine, membranes of recombinant CHO-K1 cells expressing human H1 receptor, 1 hour at room temperature; for Ki: read-out: H1 pKi (converted)
T1 construct: purchased Euroscreen SA, Brussels, Belgium ES-390-M; host or cells: CHO-K1
Procedure: Histamine H1 receptor binding activity of compounds of the invention was assessed by competition displacement of 1 nM [3H]-pyrilamine (Amersham, Bucks, Product code TRK 608, specific activity 30 Ci/mmol) to 2 μg membranes prepared from recombinant CHO-K1 cells expressing the human H1 receptor (Euroscreen SA, Brussels, Belgium, product code ES-390-M) in assay buffer (50 mM Tris pH 7.4 containing 2 mM MgCl2, 250 mM sucrose and 100 mM NaCl) for 1 hour at room temperature.
The following compounds of the invention gave inhibition of [3H]pyrilamine binding: […]

recombinant human CCR3 = biological target: T2, recombinant human CCR3 (Homo sapiens, UniProt P51677); assay: Compound affinity at human recombinant CCR3 receptors, radioligand competition on CHO-K1 cell membranes; type: binding; conditions: competition with 2 nM [3H]-4-(2,4-dichloro-3-methylphenoxy)-1'-[4-(methylsulfonyl)benzoyl]-1,4'-bipiperidine, 2 h at 37° C., mean pKi by Cheng-Prussof correction of pIC50, minimum 2 experiments
T2 construct: expressed in transfected cells; host or cells: CHO-K1
T2 sequence (P51677 1-355): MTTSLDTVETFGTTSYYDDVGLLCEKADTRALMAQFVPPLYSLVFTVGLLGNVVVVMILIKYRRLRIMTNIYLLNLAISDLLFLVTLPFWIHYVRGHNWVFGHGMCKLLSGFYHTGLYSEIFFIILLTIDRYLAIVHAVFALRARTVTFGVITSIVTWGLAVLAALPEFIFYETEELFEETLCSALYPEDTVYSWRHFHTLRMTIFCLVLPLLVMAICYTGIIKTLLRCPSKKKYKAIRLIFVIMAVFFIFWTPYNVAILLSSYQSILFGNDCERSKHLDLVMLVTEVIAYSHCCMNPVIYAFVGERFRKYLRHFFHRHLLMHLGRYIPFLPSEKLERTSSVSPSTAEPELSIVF
Procedure: Determination of Compound Affinity at Human Recombinant CCR3 Receptors Assessed by Competition of [^3H]-4-(2,4-dichloro-3-methylphenoxy)-1′-[4-(methylsulfonyl)benzoyl]-1,4′-bipiperidine for CHO-K1 Cell Membranes In Vitro
Membranes, prepared from CHO-K1 cells stably expressing recombinant human CCR3, suspended in assay buffer (50 mM Tris-Base, pH 7.4; containing sodium chloride (100 mM) and magnesium chloride (2 mM)) were incubated in the presence of 2 nM [^3H]-4-(2,4-dichloro-3-methylphenoxy)-1′-[4-(methylsulfonyl)benzoyl]-1,4′-bipiperidine, along with vehicle (1% (v/v) DMSO), 4-(4-chloro-3-methylphenoxy)-1′-[2-(methylsulfonyl)benzoyl]-1,4′-bipiperidine (to define non-specific binding) or test compound for 2 h at 37° C. in round bottomed 96-well plates. The plates were then filtered onto GF/B filter plates, pre-soaked for 1 hour in plate-coating solution (0.3% (w/v) polyethylenimine, 0.2% (w/v) BSA in de-ionised water), using a 96-well plate Tomtec cell harvester. Four washes (250 μL) with wash buffer (50 mM Tris-Base, pH 7.4 containing sodium chloride (500 mM) and magnesium chloride (2 mM)) were performed at 4° C. to remove unbound radioactivity. […] The plates were sealed (TopSeal A) and filter-bound radioactivity was measured with a scintillation counter (TopCount, Packard BioScience) using a 1 minute counting protocol. […]

T1 sequence (P35367 whole entry): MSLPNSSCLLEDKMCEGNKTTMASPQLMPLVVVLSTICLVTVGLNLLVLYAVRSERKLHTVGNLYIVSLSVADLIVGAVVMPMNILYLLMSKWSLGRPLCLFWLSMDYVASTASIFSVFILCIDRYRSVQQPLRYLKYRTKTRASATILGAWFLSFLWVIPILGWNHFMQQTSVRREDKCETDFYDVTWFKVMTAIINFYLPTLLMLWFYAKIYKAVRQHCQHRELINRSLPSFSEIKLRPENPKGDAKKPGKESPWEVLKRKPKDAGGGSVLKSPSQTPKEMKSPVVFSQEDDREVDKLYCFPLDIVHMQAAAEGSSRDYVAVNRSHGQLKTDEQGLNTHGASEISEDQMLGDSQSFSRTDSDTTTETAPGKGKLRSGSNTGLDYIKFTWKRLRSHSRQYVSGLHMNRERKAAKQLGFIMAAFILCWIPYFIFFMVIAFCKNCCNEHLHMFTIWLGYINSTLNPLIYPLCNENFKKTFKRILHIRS

Ki (human H1 receptor) [nM]	further results	Molecule
79.4	–	Cc1c(OC2CCN(CC3CCN([C@@H](CC4CCCCC4)C(=O)O)CC3)CC2)ccc(Cl)c1Cl [Example 2A, (2S)-3-Cyclohexyl-2-(4-{[4-(3,4-dichloro-2-methylphenoxy)piperidin-1-yl]methyl}piperidin-1-yl)propanoic acid]
200	–	Cc1c(OC2CCN(CC3CCN([C@@H](CC4CC4)C(=O)O)CC3)CC2)ccc(Cl)c1Cl [Example 3A, (2S)-3-Cyclopropyl-2-(4-{[4-(3,4-dichloro-2-methylphenoxy)piperidin-1-yl]methyl}piperidin-1-yl)propanoic acid]
126	–	O=C(O)[C@H](CC1CCCC1)N1CCC(CN2CCC(Oc3ccc(Cl)c(Cl)c3)CC2)CC1 [Example 4A, (2S)-3-Cyclopentyl-2-(4-{[4-(3,4-dichlorophenoxy)piperidin-1-yl]methyl}piperidin-1-yl)propanoic acid]
501	–	O=C(O)C1(N2CCC(CN3CCC(Oc4ccc(Cl)c(Cl)c4)CC3)CC2)CCCCC1 [Example 6A, 1-(4-{[4-(3,4-dichlorophenoxy)piperidin-1-yl]methyl}piperidin-1-yl)cyclohexanecarboxylic acid]
316	–	Cc1c(OC2CCN(CC3CCN(C4(C(=O)O)CCCC4)CC3)CC2)ccc(Cl)c1Cl [Example 8A, 1-(4-{[4-(3,4-dichloro-2-methylphenoxy)piperidin-1-yl]methyl}piperidin-1-yl)cyclopentanecarboxylic acid]
631	–	Cc1cc(Cl)ccc1OC1CCN(CC2CCN(C3(C(=O)O)CCCCC3)CC2)CC1 [Example 13A, 1-(4-{[4-(4-Chloro-2-methylphenoxy)piperidin-1-yl]methyl}piperidin-1-yl)cyclohexanecarboxylic acid dihydrochloride]
–	Ki (recombinant human CCR3): 0.631 nM	Cc1cc(Cl)ccc1OC1CCN(CC2CCN([C@@](C)(CC(C)C)C(=O)O)CC2)CC1 [Example 16A, (2S)-2-{4-[4-(4-Chloro-2-methyl-phenoxy)-piperidin-1-ylmethyl]-piperidin-1-yl}-2,4-dimethyl-pentanoic acid]
–	H1 pKi (human H1 receptor): 7.2	(2S)-3-cyclohexyl-2-(4-{[4-(3,4-dichloro-2-methylphenoxy)piperidin-1-yl]methyl}piperidin-1-yl)propanoic acid [Example 1A]

From patent US20080275084A1, “Piperidines for the Treatment of Chemokine Mediated Diseases” (ASTRAZENECA AB, priority 2005, published 2008)
